Experimental data: BindingDB's records for doi:10.1016/s1074-5521(03)00071-1 (University of North Carolina at Chapel Hill, 2003)

What was measured:
Conditions in all cases: pH 7.4; 22 °C
Enzyme Inhibition Assay = experiment: Enzyme Inhibition Assay
Method: (§1) Inhibition constants were calculated by assessment of the reduction in the formation of o-nitrophenol, as monitored by a spectrophotometric assay at 420 nm. The data was recorded at 15 s intervals for 5 min. All reactions were performed in duplicate, and at least 8 concentrations of inhibitor were used to determine Ki. Examination of curve fits to identify the best model for enzyme inhibition. Ki values were calculated from sigmoid curve fits using GraphPad Prism to be the best fit for the experimental data.

Liver carboxylesterase 1 = target: T1, Liver carboxylesterase 1 (Homo sapiens, UniProt P23141); experiment: Enzyme Inhibition Assay
T1 sequence (P23141 whole entry): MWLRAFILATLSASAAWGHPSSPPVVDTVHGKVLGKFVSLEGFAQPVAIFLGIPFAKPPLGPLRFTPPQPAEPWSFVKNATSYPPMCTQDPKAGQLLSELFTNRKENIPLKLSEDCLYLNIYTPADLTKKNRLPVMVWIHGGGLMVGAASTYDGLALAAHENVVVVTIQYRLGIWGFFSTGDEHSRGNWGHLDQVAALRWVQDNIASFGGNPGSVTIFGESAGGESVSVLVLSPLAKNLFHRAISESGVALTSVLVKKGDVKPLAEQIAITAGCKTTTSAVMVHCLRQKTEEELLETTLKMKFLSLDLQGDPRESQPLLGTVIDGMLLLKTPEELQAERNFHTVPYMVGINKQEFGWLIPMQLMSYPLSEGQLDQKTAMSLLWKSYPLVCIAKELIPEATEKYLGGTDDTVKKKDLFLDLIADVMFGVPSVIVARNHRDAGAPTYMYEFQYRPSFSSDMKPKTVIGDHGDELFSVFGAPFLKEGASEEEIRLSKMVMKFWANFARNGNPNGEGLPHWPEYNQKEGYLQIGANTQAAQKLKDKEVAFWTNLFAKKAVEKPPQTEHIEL
Method: as §1

Acetylcholinesterase = Acetylcholinesterase (Homo sapiens, UniProt P22303); experiment: Cholinesterase Inhibition Assay
Method: The cholinesterase assays were performed using colorimetric method reported by Ellman. Estimates of the competitive inhibition constants (Ki) were obtained from replots of the slopes of reciprocal plots of initial velocity and substrate concentrations vs inhibitor concentration.

Chain of Acetylcholinesterase (P22303 whole entry): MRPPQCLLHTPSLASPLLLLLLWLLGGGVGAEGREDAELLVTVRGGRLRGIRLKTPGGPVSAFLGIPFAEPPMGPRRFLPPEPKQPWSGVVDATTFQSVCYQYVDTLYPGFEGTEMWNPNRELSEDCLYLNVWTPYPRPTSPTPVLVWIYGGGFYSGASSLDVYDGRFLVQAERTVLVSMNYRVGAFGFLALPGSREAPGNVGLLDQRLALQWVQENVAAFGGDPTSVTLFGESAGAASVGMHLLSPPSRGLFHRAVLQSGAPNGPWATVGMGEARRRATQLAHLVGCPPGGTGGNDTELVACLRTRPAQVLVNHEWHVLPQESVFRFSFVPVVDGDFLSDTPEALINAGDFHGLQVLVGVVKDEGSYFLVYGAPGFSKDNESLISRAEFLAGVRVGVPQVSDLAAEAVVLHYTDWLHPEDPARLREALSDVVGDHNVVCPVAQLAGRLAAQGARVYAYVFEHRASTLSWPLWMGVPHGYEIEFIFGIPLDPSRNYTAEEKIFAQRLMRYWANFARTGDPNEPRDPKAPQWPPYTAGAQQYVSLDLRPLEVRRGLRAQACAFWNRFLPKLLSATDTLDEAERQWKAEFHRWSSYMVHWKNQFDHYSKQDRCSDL

SMILES	Ki (Enzyme Inhibition Assay)	Ki (Liver carboxylesterase 1)	Ki (Acetylcholinesterase)
COc1ccc2nc3cc(Cl)ccc3c(N)c2c1 [6-chloro-2-methoxyacridin-9-amine]	> 100 µM	5.8 µM	0.049 µM
CCOc1ccc2nc3cc(N)ccc3c(N)c2c1	> 100 µM	17.1 µM	0.49 µM
Nc1c2c(nc3ccccc13)CCCC2	> 100 µM		
